# Results reported in patent US11000635B2, “Antimicrobial compositions comprising minocycline and oxidized cellulose” (priority 2017, dated 2021).
# “Also recorded” adds a separate entry of the source.
# How the values were obtained:
# [1] = test system: Staphylococcus aureus (S. aureus), Strain #6538; assay: Secondary stage: antibiotic alone or blank ORC extracted in antibiotic, bacterial growth curves (ET50); type: cell-based; conditions: presence of ORC pads (not impregnated), read-out: MIC upon addition of a small amount of ORC to the growth medium
# [2] = test system: Staphylococcus aureus (S. aureus), Strain #6538; assay: Primary stage MIC measurement of antibiotic alone (2-fold dilutions, OD 600 nm growth curves); type: cell-based; conditions: for MIC: Staphylococcus aureus, read-out: MIC values for S. aureus found in the present study (in-house primary MIC)
# Method: An isolated colony of S. aureus bacteria was picked from afresh streak plate (no more than 1 week old). The colony was transferred into 3-4 ml of TSB and incubated overnight in an orbital shaker at 35° C.-37° C.
# The following day, the turbidity of the actively-growing broth culture was adjusted with Calcium-adjusted Mueller Hinton broth II (MHBII) to be equivalent to that of a 0.5 McFarland standard (1×10^8 CFU/ml). The broth culture was maintained under ambient conditions prior to use.
# No more than 15 minutes prior to use, the culture was further diluted 20 fold in MHBII to obtain a final 5×10^6 CFU/ml stock suspension.
# The method used in this stage was based on the classic Minimum Inhibitory Concentration (MIC) measurements, as described by the Clinical and Laboratory Standards Institute (CLSI) document M07-A9: “Method for Dilution Antimicrobial Susceptibility Test for Bacteria that Grow Aerobically”. While classic MIC measurements require visual inspection of plates for bacterial growth after 18 hours, growth was monitored in the present study according to optical density (OD) at 600 nm, using an ELISA reader (MultiSkan™ FC ELISA reader, Thermo Fisher Scientific, Massachusetts, USA), thereby obtaining bacterial growth curves for tested antibiotic solutions.
# A 96-well assay plate layout (Corning Cat #3596) was prepared as follows:
# Columns 1 and 3-12: 100 μl of MHBII alone was added to each well.
# […]: 200 μl of a solution of antibiotic in MHBII at the highest concentration to be tested was added to each well.
# A series of 2-fold dilutions was performed, wherein 100 μl of solution of antibiotic was withdrawn from each well of column 2, transferred to the corresponding well of column 3, and mixed.
# The dilution was then repeated by transfer from column 3 to column 4, and so on, until column 11, when the 100 μl of solution of antibiotic withdrawn from each well of column 11 was discarded.
# The plate was then incubated at 37° C. with shaking in the ELISA reader and the optical density at 600 nm was read every 20 minutes for a total of 18 hours.
# The average OD reading obtained for each antibiotic concentration was calculated and plotted against time to obtain a growth curve.
# The MIC was determined as the first antibiotic concentration at which […] by the end of the 18-hour period.
# S. aureus [3] = assay: Tertiary stage: antimicrobial activity of antibiotic-impregnated ORC extracts (ET50, MIC); type: cell-based, Staphylococcus aureus; conditions: for Result (ET50): ORC pad; for Antibiotic-impregnated ORC (tertiary) MIC: single antibiotic impregnated onto ORC pad
# Method: The maximum OD is determined by bacterial growth in MHBII without the chemical.
# Solutions comprising different concentrations of antibiotics to be tested were prepared in methanol.
# Blank ORC pads of dimensions 1×1.5 inch, weighing between 65-75 mg (70 mg on average), in duplicate, were immersed in the antibiotic solutions and then dried using a rotary evaporator to provide “antibiotic-impregnated ORC pads”.
# 15 ml test tubes containing 3 ml of sterile PBS were prepared, and the antibiotic-impregnated ORC pads were immersed in the tubes and incubated for 3-5 hours at ambient temperature on a roller mixer (Stuart, Cat #SRT9D).
# Each of the above extracts was filtered out using a sterile 0.8/0.2 μm syringe filter into a clean 15 ml tube. These extraction fluids are referred to herein as “antibiotic-impregnated ORC extracts”.
# Briefly, ORC patches weighing on average 70 mg each were impregnated with the selected antibiotic. Antibiotic-impregnated ORC extracts were prepared by immersion and incubation in 3 ml of sterile PBS for 3 hours at ambient temperature. The ORC was then removed and any remaining ORC particles were filtered out using a […] syringe filter. This extraction fluid was then diluted 10-fold into Muller Hinton growth medium containing bacteria. Bacterial growth was monitored every 20 min for a total of 18 hours according to optical density (OD) at 600 nm, using an ELISA reader.
# Since the study included many possible combinations of two antibiotics, each with their own different concentration range, a matrix of possible antibiotic concentrations was designed, and ORC pads prepared accordingly (see Table 10). Since all the possible combinations could not be fitted into one 96 well plate, a series of MIC experiments were carried out.
# S. aureus [4] = conditions: published values; cited from earlier work
# [5] = test system: Staphylococcus aureus (S. aureus), Strain #6538; assay: Secondary stage: antibiotic alone or blank ORC extracted in antibiotic, bacterial growth curves (ET50); type: cell-based; conditions: antibiotic solution with versus without ORC
# Method: Blank ORC pads i.e. ORC pads which had not been impregnated with antibiotic (referred to herein as “blank ORC pads”), were subjected to extraction in a solution of antibiotic in PBS for three hours at ambient temperature.
# Due to the acidity of ORC, which provides some antibiotic effect, the size of the pad used was small i.e. approximately 1×1.5 inch, weighing between 65-75 mg (70 mg on average) in order to prevent the ORC from affecting the final pH of the assay and therefore the growth of the bacteria.
# 15 ml tubes, each containing 3 ml of an antibiotic solution at a known concentration in sterile PBS, were prepared in duplicate. […]
# The plate was incubated at 37° C. with shaking in the ELISA reader and the optical density at 600 nm was read every 20 minutes for a total of 18 hours.
# The average and standard deviation for OD readings was calculated for each time point of the wells using Excel. […]
# The average values were also entered into the GraphPad Prism program (GraphPad Software Inc., CA, USA) in order to calculate the Effective Time 50 (ET50) i.e. the time, in minutes, required for the antibiotic to induce a response halfway between the baseline and maximum, where the maximum is the bacterial growth in MHBII with PBS. This provides a quantifiable measure of the efficacy of the antibiotics tested and enables comparison of the various samples tested. […]
compound,measurement,setting,value
"CN(C)c1ccc(O)c2c1C[C@H]1C[C@H]3[C@H](N(C)C)C(O)=C(C(N)=O)C(=O)[C@@]3(O)C(O)=C1C2=O [Minocycline, minocycline]",MIC,[1],0.05 µg/mL
same,MIC as single antibiotic in the absence of ORC (first stage MIC results),[2],0.25 µg/mL
same,MIC,[2]; absence of ORC,0.25 µg/mL
same,Result (ET50),S. aureus [3]; 0.54 μg Minocycline + 0.00 μg Clindamycin per gr ORC,637.6 min
same,Result (ET50),S. aureus [3]; 0.54 μg Minocycline + 0.00 μg Rifampin per gr ORC,585.4 min
same,Result (ET50),S. aureus [3]; 1.08 μg Minocycline + 0.00 μg Clindamycin per gr ORC,1072 min
same,Result (ET50),S. aureus [3]; 1.08 μg Minocycline + 0.00 μg Rifampin per gr ORC,799.9 min
same,Result (ET50),S. aureus [3]; 2.16 μg Minocycline + 0.00 μg Clindamycin per gr ORC,>2000 min
same,Result (ET50),S. aureus [3]; 2.16 μg Minocycline + 0.00 μg Rifampin per gr ORC,>2000 min
same,Result (ET50),S. aureus [3]; 2.70 μg Minocycline + 0.00 μg Clindamycin per gr ORC,>2000 min
same,Result (ET50),S. aureus [3]; 2.70 μg Minocycline + 0.00 μg Rifampin per gr ORC,>2000 min
same,MIC,"S. aureus [3]; Staphylococcus aureus, single antibiotic impregnated onto ORC, read-out: MIC of minocycline together with ORC, ORC impregnated with minocycline",0.0126 µg/mL
same,Minocycline concentration sufficient for growth inhibition of S. aureus in combination,S. aureus [3]; impregnated onto ORC together with rifampin or clindamycin,1.26 ng/mL
same,Antibiotic-impregnated ORC (tertiary) MIC,S. aureus [3],0.0126 µg/mL
same,Fold reduction of the MIC when impregnated onto ORC in combination with an additional antibiotic,S. aureus [3]; versus single antibiotic in the absence of ORC (first stage MIC),200
"CO[C@H]1/C=C/O[C@@]2(C)Oc3c(C)c(O)c4c(O)c(c(/C=N/N5CCN(C)CC5)c(O)c4c3C2=O)NC(=O)/C(C)=C\C=C\[C@H](C)[C@H](O)[C@@H](C)[C@@H](O)[C@@H](C)[C@H](OC(C)=O)[C@@H]1C [Rifampin, rifampin]",MIC values for S. aureus according to CLSI,S. aureus [4],0.004 to 0.015 µg/mL
same,Effect of addition of ORC on the antibiotic activity,[5],ORC interferes with the antibiotic activity of rifampin; also recorded: impaired by ORC and MIC was increased
same,MIC as single antibiotic in the absence of ORC (first stage MIC results),[2],0.015 µg/mL
same,MIC,[2]; absence of ORC,0.015 µg/mL
same,Result (ET50),S. aureus [3]; 0.00 μg Minocycline + 31.41 μg Rifampin per gr ORC,406.8 min
same,Result (ET50),S. aureus [3]; 0.00 μg Minocycline + 62.82 μg Rifampin per gr ORC,442.3 min
same,Result (ET50),S. aureus [3]; 0.00 μg Minocycline + 125.64 μg Rifampin per gr ORC,450.4 min
same,Result (ET50),S. aureus [3]; 0.00 μg Minocycline + 157.05 μg Rifampin per gr ORC,418.1 min
same,Rifampin concentration sufficient for growth inhibition of S. aureus in combination,S. aureus [3]; impregnated onto ORC together with 1.26 ng/ml minocycline,366.5 ng/mL
same,Antibiotic-impregnated ORC (tertiary) MIC,S. aureus [3],0.733 µg/mL
same,Change of antimicrobial activity when impregnated onto the ORC pad,S. aureus [3]; versus first stage MIC,activity was impaired
"CCC[C@@H]1C[C@@H](C(=O)N[C@@H]([C@H]2O[C@H](SC)[C@H](O)[C@@H](O)[C@H]2O)[C@H](C)Cl)N(C)C1 [Clindamycin, clindamycin]",MIC as single antibiotic in the absence of ORC (first stage MIC results),[2],0.062 µg/mL
same,MIC,[2]; absence of ORC,0.062 µg/mL
same,Antibiotic-impregnated ORC (tertiary) MIC,S. aureus [3],0.015 µg/mL
Gentamycin [Gentamicin],MIC values for S. aureus according to CLSI,S. aureus [4],0.12 to 1 µg/mL
same,Effect of addition of ORC on the antibiotic activity,[5],decreased antibiotic activity; also recorded: impaired by ORC and MIC was increased
same,MIC values for S. aureus found in the present study (in-house primary MIC),[2]; absence of ORC,0.25 µg/mL
